# Experimental data from US20210145852A1, “Combination Therapies for Treating Muscular Dystrophy” (Sarepta Therapeutics, Inc., priority 2017, published 2021).
# Entries after “also recorded” stand apart in the source; their conditions may differ. Like-named read-outs stand apart in the source and are kept apart here. {TEG} = triethylene glycol tail moiety
# Key:
# [1] = cited from earlier work
# ryanodine receptor [2] = conditions: mouse model of DMD; cited from earlier work
# ryanodine receptor [3] = conditions: patient cells; cited from earlier work
# Mdx mice [4] = conditions: cited from earlier work; for inflammation and fibrosis: mdx mice (Hammers et al.); for phenotype: mdx mouse, long-term treatment; for diaphragm function: mouse DMD model (mdx)
# [5] = system: golden retriever muscular dystrophy (GRMD) dog; conditions: cited from earlier work; for phenotype: GRMD dog, long-term treatment; for diaphragm function: dog DMD model
# cNF-κB = conditions: in vitro; cited from earlier work
# Mdx mice [6] = experiment: Histology (H&E and picrosirius red staining) of quadriceps, PMO and CAT-1004 efficacy study in Mdx mice; assay type: in vivo, mouse; conditions: 4 weeks treatment, M23D PMO 40 mg/kg IV weekly or CAT-1004 1% in diet, compared to Mdx mice treated with saline
# Text: Wild-type (WT) (C57BL/10ScSn/J) and Mdx (C57BL/10ScSn-Dmd^mdx/J) mice were used to test the efficacy of the M23D PMO (AVI-4225) in combination with CAT-1004. 5-week old mice were acquired from Jackson Labs and acclimated for one-week. The treatment duration was 4 weeks and began when the mice were 6 weeks of age. Mice were divided into the following five treatment groups, each with N=12: (1) wild-type mice treated with saline, (2) Mdx mice treated with saline, (3) Mdx mice treated with CAT-1004, (4) Mdx mice treated with the M23D PMO, and (5) Mdx mice treated with the M23D PMO in combination with CAT-1004. Mice were dosed weekly with M23D PMO (AVI-4225) at 40 mg/kg by IV injection and treated with CAT-1004 (1%) in their diet. […] Food consumption was closely monitored and the feed was changed twice per week. […]
# To assess the effectiveness of a combination treatment of an exon skipping antisense oligonucleotide and an NF-Kb inhibitor in Duchenne muscular dystrophy, M23D PMO and CAT-1004 were utilized in the Mdx mouse model. The effect on inflammation and fibrosis was determined by analyzing samples of muscle taken from the quadriceps, of (1) wild-type mice treated with saline, (2) mdx mice treated with saline, (3) mdx mice treated with CAT-1004, (4) mdx mice treated with the M23D PMO, and (5) mdx mice treated with the M23D PMO in combination with CAT-1004. […]
# dystrophin = experiment: Immunohistochemical analysis of dystrophin expression in quadriceps of Mdx mice; assay type: in vivo, mouse; conditions: compared to Mdx mice treated with saline or CAT-1004 monotherapy
# Text: (§1) Wild-type (WT) (C57BL/10ScSn/J) and Mdx (C57BL/10ScSn-Dmd^mdx/J) mice were used to test the efficacy of the M23D PMO (AVI-4225) in combination with CAT-1004. 5-week old mice were acquired from Jackson Labs and acclimated for one-week. The treatment duration was 4 weeks and began when the mice were 6 weeks of age. Mice were divided into the following five treatment groups, each with N=12: (1) wild-type mice treated with saline, (2) Mdx mice treated with saline, (3) Mdx mice treated with CAT-1004, (4) Mdx mice treated with the M23D PMO, and (5) Mdx mice treated with the M23D PMO in combination with CAT-1004. Mice were dosed weekly with M23D PMO (AVI-4225) at 40 mg/kg by IV injection and treated with CAT-1004 (1%) in their diet. All non-CAT-1004 animals were fed a normal chow control diet and all non-M23D PMO animals were given weekly IV injections of saline. Food consumption was closely monitored and the feed was changed twice per week. Mice were sacrificed at 10 weeks of age (4 weeks post-first dose). The quadriceps, diaphragm, and heart were harvested from each of the respective treatment groups.
# For immunohistochemistry, frozen quadriceps sections were serially cut and mounted on slides using a cryostat. Sections were rehydrated in PBS and then blocked with Mouse on Mouse (MOM) blocking buffer for 1 hour at room temperature. […]
# [7] = system: mouse dystrophin exon 23 pre-mRNA; experiment: RT-PCR analysis for exon 23 skipping in Mdx mice; assay type: in vivo; conditions: muscle of quadriceps, diaphragm and heart of Mdx mice; 4 weeks treatment
# Text: as §1
# For exon skipping analysis, quadriceps, diaphragm, and heart tissue samples were homogenized. […] Exon 23 skipping was determined by Caliper imaging. […] Percentage of skipping was determined using the formula: % skipping=skipped molarity/(unskipped+skipped molarity)×100%. […]
# dystrophin protein = experiment: Western blot analysis of dystrophin protein levels in Mdx mice; assay type: in vivo, mouse; conditions: quadriceps, diaphragm and heart of Mdx mice, combination compared to M23D PMO monotherapy
# Text: as §1
# Dystrophin protein was analyzed by Western blot analysis, and immunohistochemistry. […] Total protein concentration of the protein lysates were measured using Pierce™ BCA Protein Assay Kit (ThermoFisher Scientific catalog #23225). […]
# NF-κB p65 = conditions: cited from earlier work
# [8] = phase I clinical program, adults, placebo-controlled studies; cited from earlier work
# NF-κB = conditions: cited from earlier work
# human DMD transcript = conditions: hDMD mouse model; cited from earlier work
# [9] = system: exon 51 of dystrophin pre-mRNA; conditions: normal human skeletal muscle cells or muscle cells from DMD patients; RT-PCR and Western blot; cited from earlier work
# juvenile rats = conditions: T cell-dependent antibody responses, immunophenotyping of peripheral blood T- and B-cell subpopulations; cited from earlier work
molecule,measurement,setting,value
triacetyl-beta-cyclodextrin,solubility in water (in words),[1],insoluble
O=C1CN(/N=C/c2ccc(-c3ccc([N+](=O)[O-])cc3)o2)C(O)=N1 [dantrolene],antisense-mediated exon skipping,ryanodine receptor [2],enhance antisense-mediated exon skipping
same,antisense-mediated exon skipping,ryanodine receptor [3],enhance antisense-mediated exon skipping
CC/C=C\C/C=C\C/C=C\C/C=C\C/C=C\CCCC(=O)NCCNC(=O)c1ccccc1O [CAT-1041],inflammation and fibrosis,Mdx mice [4],reduced inflammation and fibrosis
same,muscle fibrosis,"Mdx mice [4]; mdx mice, long-term studies",reduces muscle fibrosis
same,skeletal muscle weight,"Mdx mice [4]; mdx mice, long-term studies",increases skeletal muscle weight
same,exercise endurance,Mdx mice [4]; mdx mice,increased exercise endurance
same,muscle function,Mdx mice [4]; mdx mice,preserves muscle function
same,phenotype,Mdx mice [4],improves the phenotype
same,diaphragm function,Mdx mice [4],improved diaphragm function
same,phenotype,[5],improves the phenotype
same,diaphragm function,[5],improved diaphragm function
same,cNF-κB activation,cNF-κB,inhibit cNF-κB activation in vitro
"M23D PMO: PMO hybridizing to mouse dystrophin exon 23 pre-mRNA, TEG tail at 5′ end, sequence GGCCAAACCTCGGCTTACCTGAAAT (SEQ ID NO: 30) (antisense GGCCAAACCTCGGCTTACCTGAAAT; all phosphorodiamidate morpholino (PMO), 5' {TEG})",inflammation and fibrosis in quadriceps,Mdx mice [6],reduction of inflammation and fibrosis
same,dystrophin expression (immunohistochemistry),dystrophin,increase in dystrophin expression
same,exon 23 skipping,[7],Exon skipping was observed
"CC/C=C\C/C=C\C/C=C\C/C=C\C/C=C\C/C=C\CCC(=O)NCCNC(=O)c1ccccc1O [CAT-1004, N-(2-[(4Z,7Z,10Z,13Z,16Z,19Z)-docosa-4,7,10,13,16,19-hexaenamido]ethyl)-2-hydroxybenzamide]",inflammation and fibrosis in quadriceps,Mdx mice [6],reduction of inflammation and fibrosis
same,dystrophin production,dystrophin protein,neither exon skipping nor dystrophin production were observed
same,NF-κB activity,NF-κB p65; dog model of DMD,decreases NF-κB activity
same,binding of the p65 subunit to DNA,NF-κB p65; dog model of DMD,reduced binding of the p65 subunit to DNA
same,secretion of the inflammatory mediator TNF-α,NF-κB p65; dog model of DMD,reduced secretion of the inflammatory mediator TNF-α
same,NF-κB p65-dependent inflammatory responses and downstream proinflammatory genes modulated by p65,NF-κB p65; golden retriever DMD model,significantly inhibit
same,safety and tolerability,[8],"safe, well tolerated"
same,inflammation and fibrosis,Mdx mice [4],reduced inflammation and fibrosis
same,cumulative run distance,"Mdx mice [4]; mdx mice, long-term studies",increased cumulative run distance
same,exercise endurance,Mdx mice [4]; mdx mice,increased exercise endurance
same,muscle degeneration and inflammation,Mdx mice [4]; mdx mice,reduce muscle degeneration and inflammation
same,muscle function,Mdx mice [4]; mdx mice,preserve muscle function
same,muscle regeneration,Mdx mice [4]; mdx mice,enhance muscle regeneration
same,phenotype,Mdx mice [4],improves the phenotype
same,diaphragm function,Mdx mice [4],improved diaphragm function
same,phenotype,[5],improves the phenotype
same,diaphragm function,[5],improved diaphragm function
same,levels of the p65 subunit of NF-κB,"NF-κB; healthy adult humans, compared to placebo or salicylate and omega-3 DHA as separate molecules",lowers levels of the p65 subunit of NF-κB
same,biomarkers of inflammation in whole blood,NF-κB; humans,decrease of biomarkers of inflammation
same,activated NF-κB pathways,"NF-κB; phase I clinical program in adults, listed as Edasalonexent",inhibited activated NF-kB pathways; also recorded: inhibited activated NF-κB pathways
same,exon 23 skipping,[7],neither exon skipping nor dystrophin production were observed
same,cNF-κB activation,cNF-κB,inhibit cNF-κB activation in vitro
G-2-beta-cyclodextrin,solubility in water,[1],147 % (w/v)
eteplirsen,exon 51 skipping in vivo,human DMD transcript,confirmed in vivo
same,exon 51 skipping,[9],potent inducer of exon 51 skipping
same,effect on the immune response,juvenile rats,no adverse effect on the immune response
